Laboratory results: patent publication US8129417B2, “Substituted octahydrocyclopenta[C]pyrrol-4-amines as calcium channel blockers” (Abbott Laboratories, priority 2008, dated 2012)

Target: human Cav2.2 (Homo sapiens, UniProt Q00975)
Experiment: Assessment of calcium channel activity using FLIPR (Ca2+ influx in IMR32 cells)
Type: cell-based
Details: 3 minute pre-incubation with compound (*), 2 μM nifedipine, depolarized with 80 mM KCl
Procedure: (i) In Vitro Methods—Assessment of Calcium Channel Activity Using FLIPR:
The IMR32 cells were maintained in MEM media containing 10% (v/v) FBS, 1% (v/v) antibiotic/antimitotic, 1% (v/v) sodium pyruvate and 1% (v/v) MEM NEAA. Following dissociation in 0.05% (v/v) trypsin/EDTA, cells were seeded into black 1×96-well plates (Corning Cellbind) at a density of 1-1.2×10^5 cells/well and incubated in the maintenance media above for 48 hours at 37° C. […] To determine the IC50 values, the percent inhibition of the compound at each concentration was determined relative to the activity in the absence of inhibitor, and data was fitted using non-linear regression sigmoidal dose response curve analysis with GraphPad Prism®.

Chain of human Cav2.2 (Q00975 whole entry): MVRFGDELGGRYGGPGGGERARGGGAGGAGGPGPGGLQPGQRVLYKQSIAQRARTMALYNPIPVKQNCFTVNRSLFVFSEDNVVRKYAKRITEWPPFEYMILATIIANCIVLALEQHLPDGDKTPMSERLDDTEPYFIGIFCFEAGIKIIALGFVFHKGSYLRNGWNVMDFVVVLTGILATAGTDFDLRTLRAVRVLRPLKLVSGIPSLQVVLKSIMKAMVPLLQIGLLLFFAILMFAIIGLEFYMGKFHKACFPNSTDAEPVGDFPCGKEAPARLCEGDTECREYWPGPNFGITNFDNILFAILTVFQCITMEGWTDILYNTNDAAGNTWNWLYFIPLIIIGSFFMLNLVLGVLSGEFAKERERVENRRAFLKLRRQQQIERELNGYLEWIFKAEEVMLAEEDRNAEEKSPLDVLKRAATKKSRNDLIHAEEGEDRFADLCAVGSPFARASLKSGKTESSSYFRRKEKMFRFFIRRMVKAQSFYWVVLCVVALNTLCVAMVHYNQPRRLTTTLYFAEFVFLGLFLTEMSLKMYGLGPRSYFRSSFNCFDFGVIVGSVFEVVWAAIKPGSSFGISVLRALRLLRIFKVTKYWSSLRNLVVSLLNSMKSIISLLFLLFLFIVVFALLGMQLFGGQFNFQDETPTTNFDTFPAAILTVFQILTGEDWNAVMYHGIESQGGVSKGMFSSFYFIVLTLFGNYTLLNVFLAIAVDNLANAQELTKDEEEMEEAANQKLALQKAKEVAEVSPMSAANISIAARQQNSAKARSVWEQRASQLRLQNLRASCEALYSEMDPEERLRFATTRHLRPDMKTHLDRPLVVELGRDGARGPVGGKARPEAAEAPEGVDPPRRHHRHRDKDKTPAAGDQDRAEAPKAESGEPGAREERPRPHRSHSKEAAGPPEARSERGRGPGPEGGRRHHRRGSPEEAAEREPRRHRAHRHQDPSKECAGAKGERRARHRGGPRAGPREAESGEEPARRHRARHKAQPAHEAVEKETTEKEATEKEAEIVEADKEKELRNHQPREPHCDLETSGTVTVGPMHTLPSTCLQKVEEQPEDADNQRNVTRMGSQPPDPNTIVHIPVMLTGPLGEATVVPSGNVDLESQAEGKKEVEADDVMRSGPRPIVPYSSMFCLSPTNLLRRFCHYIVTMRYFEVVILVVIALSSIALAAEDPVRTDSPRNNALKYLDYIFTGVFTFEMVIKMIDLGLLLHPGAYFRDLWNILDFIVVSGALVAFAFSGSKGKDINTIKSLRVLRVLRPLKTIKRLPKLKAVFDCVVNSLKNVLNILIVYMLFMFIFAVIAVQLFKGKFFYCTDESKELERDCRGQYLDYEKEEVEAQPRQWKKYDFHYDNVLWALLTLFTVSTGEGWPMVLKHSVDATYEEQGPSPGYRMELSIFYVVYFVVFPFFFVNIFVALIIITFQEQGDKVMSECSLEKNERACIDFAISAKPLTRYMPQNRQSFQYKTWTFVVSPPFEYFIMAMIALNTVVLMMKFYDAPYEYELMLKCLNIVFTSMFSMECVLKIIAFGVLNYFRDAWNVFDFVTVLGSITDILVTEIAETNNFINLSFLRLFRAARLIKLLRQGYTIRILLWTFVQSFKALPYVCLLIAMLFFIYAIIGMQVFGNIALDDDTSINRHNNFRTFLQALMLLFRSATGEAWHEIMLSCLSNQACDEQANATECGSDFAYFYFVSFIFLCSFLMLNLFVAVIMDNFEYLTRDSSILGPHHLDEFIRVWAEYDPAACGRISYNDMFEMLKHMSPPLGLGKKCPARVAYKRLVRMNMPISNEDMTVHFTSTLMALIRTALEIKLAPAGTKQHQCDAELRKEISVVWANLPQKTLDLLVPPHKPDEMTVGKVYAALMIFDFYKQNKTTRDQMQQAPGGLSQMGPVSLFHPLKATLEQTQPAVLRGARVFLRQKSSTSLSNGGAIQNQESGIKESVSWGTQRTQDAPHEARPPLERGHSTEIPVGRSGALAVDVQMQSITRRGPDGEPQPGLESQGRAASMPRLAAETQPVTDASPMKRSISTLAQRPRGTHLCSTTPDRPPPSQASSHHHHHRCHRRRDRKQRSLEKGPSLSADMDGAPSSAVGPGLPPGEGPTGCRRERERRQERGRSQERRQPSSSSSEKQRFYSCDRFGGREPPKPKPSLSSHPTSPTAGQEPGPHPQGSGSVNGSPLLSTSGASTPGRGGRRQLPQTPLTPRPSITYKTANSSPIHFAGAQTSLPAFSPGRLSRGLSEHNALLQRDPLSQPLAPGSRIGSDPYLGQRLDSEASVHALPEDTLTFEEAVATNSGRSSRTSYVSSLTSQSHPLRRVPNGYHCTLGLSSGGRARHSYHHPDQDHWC
Chain of human Cav2.2 (P54289 25-946 partner limits assumed): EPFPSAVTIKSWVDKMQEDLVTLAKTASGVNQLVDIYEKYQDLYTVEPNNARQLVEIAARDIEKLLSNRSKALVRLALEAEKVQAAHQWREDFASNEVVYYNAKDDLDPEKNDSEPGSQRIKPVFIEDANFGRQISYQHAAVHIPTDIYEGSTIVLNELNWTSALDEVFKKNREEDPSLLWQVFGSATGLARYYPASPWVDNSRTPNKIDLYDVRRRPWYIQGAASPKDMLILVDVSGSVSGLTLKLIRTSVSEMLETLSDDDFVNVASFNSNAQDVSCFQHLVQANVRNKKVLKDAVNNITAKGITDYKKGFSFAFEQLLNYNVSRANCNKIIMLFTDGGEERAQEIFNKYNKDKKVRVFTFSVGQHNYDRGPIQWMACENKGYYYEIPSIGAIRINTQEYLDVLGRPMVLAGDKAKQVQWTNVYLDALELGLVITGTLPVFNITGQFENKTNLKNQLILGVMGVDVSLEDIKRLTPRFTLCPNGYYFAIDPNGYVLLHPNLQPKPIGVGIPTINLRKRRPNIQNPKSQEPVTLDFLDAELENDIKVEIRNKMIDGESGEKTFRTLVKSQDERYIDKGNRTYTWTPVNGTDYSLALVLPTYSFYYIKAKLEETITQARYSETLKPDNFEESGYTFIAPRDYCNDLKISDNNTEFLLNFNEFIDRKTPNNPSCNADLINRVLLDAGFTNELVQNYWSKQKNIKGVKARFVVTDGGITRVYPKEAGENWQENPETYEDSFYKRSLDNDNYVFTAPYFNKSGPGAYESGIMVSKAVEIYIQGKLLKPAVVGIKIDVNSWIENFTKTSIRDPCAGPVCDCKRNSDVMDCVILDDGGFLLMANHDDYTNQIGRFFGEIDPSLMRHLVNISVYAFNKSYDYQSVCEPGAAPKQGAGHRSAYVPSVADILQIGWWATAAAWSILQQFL
Chain of human Cav2.2 (P54289 947-1103 partner limits assumed): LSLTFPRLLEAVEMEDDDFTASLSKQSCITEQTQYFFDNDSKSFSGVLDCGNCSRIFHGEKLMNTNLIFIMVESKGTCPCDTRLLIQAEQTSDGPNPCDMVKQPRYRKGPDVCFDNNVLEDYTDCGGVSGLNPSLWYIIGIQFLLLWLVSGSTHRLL
Chain of human Cav2.2 (P54284 whole entry partner): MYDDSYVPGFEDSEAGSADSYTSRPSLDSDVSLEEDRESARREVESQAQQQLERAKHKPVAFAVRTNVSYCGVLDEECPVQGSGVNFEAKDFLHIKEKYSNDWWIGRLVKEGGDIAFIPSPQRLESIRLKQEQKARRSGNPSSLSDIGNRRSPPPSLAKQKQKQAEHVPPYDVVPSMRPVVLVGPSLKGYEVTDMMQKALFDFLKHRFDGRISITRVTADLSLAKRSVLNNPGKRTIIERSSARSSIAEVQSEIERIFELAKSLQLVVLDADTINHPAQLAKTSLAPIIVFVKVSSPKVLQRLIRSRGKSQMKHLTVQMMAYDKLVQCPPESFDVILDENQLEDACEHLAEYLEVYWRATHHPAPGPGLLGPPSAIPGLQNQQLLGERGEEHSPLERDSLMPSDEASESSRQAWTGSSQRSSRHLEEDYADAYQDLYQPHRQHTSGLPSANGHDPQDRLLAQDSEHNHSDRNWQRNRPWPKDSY

Row | SMILES | IC50
1 | CCCC(CCC)C(=O)N[C@@H]1CC[C@H]2CN(Cc3ccccc3)C[C@H]21 [Example 21, N-[(3aS,4R,6aR)-2-benzyloctahydrocyclopenta[c]pyrrol-4-yl]-2-propylpentanamide] | 10.1 µM
2 | O=C(N[C@@H]1CC[C@H]2CN(Cc3ccccc3)C[C@H]21)C1(c2ccccc2)CCCCC1 [Example 24, N-[(3aS,4R,6aR)-2-benzyloctahydrocyclopenta[c]pyrrol-4-yl]-1-phenylcyclohexanecarboxamide] | 2.9 µM
3 | CC(Cc1ccccc1)C(=O)N[C@@H]1CC[C@H]2CN(Cc3ccccc3)C[C@H]21 (stereo partly drawn) [Example 26, N-[(3aS,4R,6aR)-2-benzyloctahydrocyclopenta[c]pyrrol-4-yl]-2-methyl-3-phenylpropanamide] | 17.3 µM
4 | CC(C)(C)C(Cc1ccccc1)C(=O)N[C@@H]1CC[C@H]2CN(Cc3ccccc3)C[C@H]21 (stereo partly drawn) [Example 29, 2-benzyl-N-[(3aS,4R,6aR)-2-benzyloctahydrocyclopenta[c]pyrrol-4-yl]-3,3-dimethylbutanamide] | 5.6 µM
5 | O=C(N[C@H]1CC[C@@H]2CN(Cc3ccccc3)C[C@@H]21)C(C1CCCCC1)C1CCCCC1 [Example 40, N-[(3aR,4S,6aS)-2-benzyloctahydrocyclopenta[c]pyrrol-4-yl]-2,2-dicyclohexylacetamide] | 3.6 µM
6 | CCC(CC)C(C(=O)N[C@H]1CC[C@@H]2CN(Cc3ccccc3)C[C@@H]21)c1ccccc1 (stereo partly drawn) [Example 44, N-[(3aR,4S,6aS)-2-benzyloctahydrocyclopenta[c]pyrrol-4-yl]-3-ethyl-2-phenylpentanamide] | 1.7 µM
7 | O=C(N[C@H]1CC[C@@H]2CN(Cc3ccccc3)C[C@@H]21)C1(c2ccccc2)CCCCC1 [Example 46, N-[(3aR,4S,6aS)-2-benzyloctahydrocyclopenta[c]pyrrol-4-yl]-1-phenylcyclohexanecarboxamide] | 3.1 µM
8 | CC(C)(C(=O)N[C@H]1CC[C@@H]2CN(Cc3ccccc3)C[C@@H]21)c1ccccc1 [Example 47, N-[(3aR,4S,6aS)-2-benzyloctahydrocyclopenta[c]pyrrol-4-yl]-2-methyl-2-phenylpropanamide] | 15.6 µM
9 | CC(C)(C)C(Cc1ccccc1)C(=O)N[C@H]1CC[C@@H]2CN(Cc3ccccc3)C[C@@H]21 (stereo partly drawn) [Example 49, 2-benzyl-N-[(3aR,4S,6aS)-2-benzyloctahydrocyclopenta[c]pyrrol-4-yl]-3,3-dimethylbutanamide] | 4.6 µM
10 | O=C(N[C@H]1CC[C@@H]2CN(Cc3ccccc3)C[C@@H]21)C(Cc1ccccc1)c1ccccc1 (stereo partly drawn) [Example 50, N-[(3aR,4S,6aS)-2-benzyloctahydrocyclopenta[c]pyrrol-4-yl]-2,3-diphenylpropanamide] | 5 µM
11 | CC(Cc1ccccc1)C(=O)N[C@H]1CC[C@@H]2CN(Cc3ccccc3)C[C@@H]21 (stereo partly drawn) [Example 51, N-[(3aR,4S,6aS)-2-benzyloctahydrocyclopenta[c]pyrrol-4-yl]-2-methyl-3-phenylpropanamide] | 15.2 µM

Second part, the compound after the results:

Row | IC50 | SMILES
12 | 14.7 µM | O=C(N[C@@H]1CC[C@H]2CN(Cc3ccccc3)C[C@H]21)C1CCCCCC1 [Example 22, N-[(3aS,4R,6aR)-2-benzyloctahydrocyclopenta[c]pyrrol-4-yl]cycloheptanecarboxamide]
13 | 3.7 µM | O=C(N[C@@H]1CC[C@H]2CN(Cc3ccccc3)C[C@H]21)C(Cc1ccccc1)c1ccccc1 (stereo partly drawn) [Example 25, N-[(3aS,4R,6aR)-2-benzyloctahydrocyclopenta[c]pyrrol-4-yl]-2,3-diphenylpropanamide]
14 | 9.7 µM | CC(C)(C(=O)N[C@@H]1CC[C@H]2CN(Cc3ccccc3)C[C@H]21)c1ccccc1 [Example 27, N-[(3aS,4R,6aR)-2-benzyloctahydrocyclopenta[c]pyrrol-4-yl]-2-methyl-2-phenylpropanamide]
15 | 13.9 µM | O=C(N[C@@H]1CC[C@H]2CN(Cc3ccccc3)C[C@H]21)C1(c2ccccc2)CC1 [Example 28, N-[(3aS,4R,6aR)-2-benzyloctahydrocyclopenta[c]pyrrol-4-yl]-1-phenylcyclopropanecarboxamide]
16 | 10.5 µM | O=C(N[C@H]1CC[C@@H]2CN(Cc3ccccc3)C[C@@H]21)C1(c2ccccc2)CC1 [Example 48, N-[(3aR,4S,6aS)-2-benzyloctahydrocyclopenta[c]pyrrol-4-yl]-1-phenylcyclopropanecarboxamide]

Same assay, conditions: 60 minute pre-incubation with compound, 2 μM nifedipine, depolarized with 80 mM KCl

Row | SMILES | IC50
17 | O=S(=O)(c1cccc(C(F)(F)F)c1)N(C1CC1)[C@@H]1CC[C@H]2CN(Cc3ccccc3)C[C@H]21 (relative stereo) [Example 200, N-[(3aS*,4R*,6aR*)-2-benzyloctahydrocyclopenta[c]pyrrol-4-yl]-N-cyclopropyl-3-(trifluoromethyl)benzenesulfonamide] | 1 µM
18 | O=C(N[C@@H]1CC[C@H]2CN(Cc3ccccc3)C[C@H]21)C(C1CCCCC1)C1CCCCC1 [Example 20, N-[(3aS,4R,6aR)-2-benzyloctahydrocyclopenta[c]pyrrol-4-yl]-2,2-dicyclohexylacetamide] | 1.8 µM
19 | O=C(N[C@H]1CC[C@H]2CN(Cc3ccccc3F)C[C@H]21)C(C1CCCCC1)C1CCCCC1 [Example 55, 2,2-dicyclohexyl-N-[(3aS,4S,6aR)-2-(2-fluorobenzyl)octahydrocyclopenta[c]pyrrol-4-yl]acetamide] | 0.8 µM
20 | O=C(N[C@H]1CC[C@H]2CN(Cc3ccccc3C(F)(F)F)C[C@H]21)C(C1CCCCC1)C1CCCCC1 [Example 60, 2,2-dicyclohexyl-N-{(3aS,4S,6aR)-2-[2-(trifluoromethyl)benzyl]octahydrocyclopenta[c]pyrrol-4-yl}acetamide] | 1.5 µM
21 | Cc1cccc(CN2C[C@@H]3CC[C@H](NC(=O)C(C4CCCCC4)C4CCCCC4)[C@@H]3C2)c1 [Example 61, 2,2-dicyclohexyl-N-[(3aS,4S,6aR)-2-(3-methylbenzyl)octahydrocyclopenta[c]pyrrol-4-yl]acetamide] | 1.5 µM
22 | O=C(N[C@H]1CC[C@H]2CN(Cc3cccc(OC(F)(F)F)c3)C[C@H]21)C(C1CCCCC1)C1CCCCC1 [Example 63, 2,2-dicyclohexyl-N-{(3aS,4S,6aR)-2-[3-(trifluoromethoxy)benzyl]octahydrocyclopenta[c]pyrrol-4-yl}acetamide] | 0.6 µM

The next lines start with the values.

Row | IC50 | SMILES
23 | 5.2 µM | O=S(=O)(c1cccc(C(F)(F)F)c1)N(C1CC1)[C@H]1CC[C@H]2CNC[C@H]21 (relative stereo) [Example 201, N-cyclopropyl-N-[(3aS*,4S*,6aR*)-octahydrocyclopenta[c]pyrrol-4-yl]-3-(trifluoromethyl)benzenesulfonamide]
24 | 0.6 µM | O=S(=O)(N[C@H]1CC[C@H]2CN(Cc3cccc(C(F)(F)F)c3)C[C@H]21)c1cccc(C(F)(F)F)c1 (single isomer, unassigned) [Example 186, 3-(trifluoromethyl)-N-{(3aS*,4S*,6aR*)-2-[3-(trifluoromethyl)benzyl]octahydrocyclopenta[c]pyrrol-4-yl}benzenesulfonamide]
25 | 2.5 µM | CC(C)Cc1ccc([C@H](C)C(=O)N[C@@H]2CC[C@H]3CN(Cc4ccccc4)C[C@H]32)cc1 [Example 23, (2S)—N-[(3aS,4R,6aR)-2-benzyloctahydrocyclopenta[c]pyrrol-4-yl]-2-(4-isobutylphenyl)propanamide]
26 | 1 µM | O=C(N[C@H]1CC[C@H]2CN(Cc3ccc(F)cc3)C[C@H]21)C(C1CCCCC1)C1CCCCC1 [Example 56, 2,2-dicyclohexyl-N-[(3aS,4S,6aR)-2-(4-fluorobenzyl)octahydrocyclopenta[c]pyrrol-4-yl]acetamide]
27 | 1.3 µM | O=C(N[C@H]1CC[C@H]2CN(Cc3cccc(F)c3)C[C@H]21)C(C1CCCCC1)C1CCCCC1 [Example 64, 2,2-dicyclohexyl-N-[(3aS,4S,6aR)-2-(3-fluorobenzyl)octahydrocyclopenta[c]pyrrol-4-yl]acetamide]

Same assay, conditions: IMR-32, @ 10 μM, 3 minute pre-incubation (*), read-out: percent inhibition

Row | SMILES | inhibition at 10 µM
28 | CC(C)C(C(=O)N1C[C@H]2CC[C@H](NCc3ccccc3)[C@H]2C1)c1ccccc1 (relative stereo) [Example 216, (3aR*,4S*,6aS*)-N-benzyl-2-(3-methyl-2-phenylbutanoyl)octahydrocyclopenta[c]pyrrol-4-amine] | 85%
29 | C[C@H](C(=O)N[C@@H]1CC[C@H]2CN(Cc3ccccc3)C[C@H]21)c1ccccc1 [Example 19, (2S)—N-[(3aS,4R,6aR)-2-benzyloctahydrocyclopenta[c]pyrrol-4-yl]-2-phenylpropanamide] | 25%
30 | CC[C@@H](C(=O)N[C@H]1CC[C@@H]2CN(Cc3ccccc3)C[C@@H]21)c1ccccc1 [Example 36, (2R)—N-[(3aR,4S,6aS)-2-benzyloctahydrocyclopenta[c]pyrrol-4-yl]-2-phenylbutanamide] | 44%
31 | C[C@@H](C(=O)N[C@H]1CC[C@@H]2CN(Cc3ccccc3)C[C@@H]21)c1ccccc1 [Example 37, (2R)—N-[(3aR,4S,6aS)-2-benzyloctahydrocyclopenta[c]pyrrol-4-yl]-2-phenylpropanamide] | 15%
32 | C[C@H](C(=O)N[C@H]1CC[C@@H]2CN(Cc3ccccc3)C[C@@H]21)c1ccccc1 [Example 38, (2S)—N-[(3aR,4S,6aS)-2-benzyloctahydrocyclopenta[c]pyrrol-4-yl]-2-phenylpropanamide] | 27%
33 | CC(C)Cc1ccc([C@H](C)C(=O)N[C@H]2CC[C@@H]3CN(Cc4ccccc4)C[C@@H]32)cc1 [Example 39, (2S)—N-[(3aR,4S,6aS)-2-benzyloctahydrocyclopenta[c]pyrrol-4-yl]-2-(4-isobutylphenyl)propanamide] | 92%
34 | O=C(N[C@H]1CC[C@@H]2CN(Cc3ccccc3)C[C@@H]21)C(c1ccccc1)C1CC1 (stereo partly drawn) [Example 41, N-[(3aR,4S,6aS)-2-benzyloctahydrocyclopenta[c]pyrrol-4-yl]-2-cyclopropyl-2-phenylacetamide] | 56%
